Data from patent US8226943B2, “Antibodies to notch receptors” (OncoMed Pharmaceuticals, Inc., priority 2008, dated 2012).

Tests used:
[1] = biological target: T1, binding of DLL4 to the human Notch 2 receptor (Homo sapiens, UniProt Q04721); assay: FACS blocking of hDLL4 ECD-Fc binding to human Notch2 on HEK-293 cells; settings: HEK-293 stably overexpressing human Notch2
T1 construct: expressed in transfected cells; host or cells: HEK-293, stably overexpressing human Notch2
Experimental: In addition, the 59R1 IgG2 antibody was assayed for its ability to block binding of DLL4 to the human Notch 2 receptor by FACS analysis. HEK-293 cells stably overexpressing human Notch2 were incubated with the antibody at various concentration and then detected for hNotch2 binding (FIG. 1C) by PE-conjugated goat anti-human Fc gamma specific antibody, or ligand blocking activity (FIG. 1D). Ligand blocking was determined by incubating the cells with human DLL4 ECD tagged with the rabbit Fc constant region and the 59R1 antibody at a range of concentrations, and then detecting the hDLL4 by PE-conjugated donkey anti-rabbit antibody. Binding of hNotch2 and ligand blocking activity were thus confirmed for the 59R1 IgG2 antibody.

[2] = test system: hJAG2-induced Notch2 signaling; assay: Luciferase reporter assay, hJAG2-induced Notch2 signaling in Hela cells; assay type: cell-based, human; settings: 40 μg/ml
Experimental: Luciferase reporter assays were used to assay the 59R1 antibody for its ability to block hDLL4-, hJAG1-, and hJAG2-induced Notch2 signaling.
Hela cells that stably overexpress human Notch2 were transiently transfected with firefly luciferase with a synthetic 8×CBS promoter, pSPORT6 MAML-1, and Renilla luciferase-CMV as a transfection control. Cells were incubated with either 200 ng of immobilized hJAG1 (R&D systems) or hJAG2 (R&D systems) for 16 hours and then assayed using Dual-Glo (Promega) according to the manufacturer's instructions. 59R1 IgG2 antibody was at a concentration of 40 μg/ml. The gamma secretase inhibitor (GSI) dibenzazepine (DBZ) was used as a control at 1 μM.

[3] = test system: B51 breast tumor cells; assay: B51 breast tumor recurrence after paclitaxel; assay type: in vivo, NOD-SCID mice; settings: 59R1 10 mg/kg twice per week plus paclitaxel 15 mg/kg twice per week for 38 days, then antibody only
Experimental: B51 breast tumor cells (50,000 cells per mouse) were injected sub-cutaneously into the mammary fat pad of NOD-SCID mice. Tumors were allowed to grow for 50 days until they had reached an average volume of ˜100 mm^3. Animals were randomized (n=10/group) and treatments were initiated. One group received a control antibody (1B711) at 10 mg/kg twice per week and paclitaxel (Taxol) at 15 mg/kg twice per week and the other group received 59R1 at 10 mg/kg twice per week and paclitaxel at 15 mg/kg twice per week. Tumor volumes were measured on the indicated days. Treatments were carried out for 38 days until the tumor volumes had regressed to ˜50 mm^3, after which the paclitaxel treatments were halted and the antibody treatments continued for the duration of the experiment.

[4] = test system: PE13 tumors; assay: Microarray analysis of 59R1 and 59R5 treated PE13 tumors; assay type: in vivo, mice; settings: for Fold Foxc2 / Fold Gzma / Fold Hey2 / Fold Heyl / Fold Mmp9 / Fold Notch3 / Fold Pdcd1lg2 / Fold Rgs4 / Fold Rgs5: treated vs. control, mean of 3 animals per group
Text: The numbers are mean differential expression values for treated vs. control animals, with 3 animals per group.

[5] = test system: PE13 breast tumors; assay: Microarray analysis of PE13 breast tumors treated with taxol or 59R1 plus taxol; assay type: in vivo, mice; settings: PE13, 59R1 Taxol vs. Taxol
Experimental: In addition to investigating the effects of 59R1 in tumors and the effect on CSC frequency, gene changes were studied following 59R1 treatment in combination with taxol. The experiment was performed in PE13 breast tumors where a decrease in CSC frequency after treatment with 59R1 alone or 59R1 plus taxol treatment had previously been observed (and described herein). Microarray analysis was performed on tumors from the same experiment where limiting dilution analyses of PE13 were carried out for CSC quantification (FIG. 19). Animals bearing PE13 breast tumors were treated three weeks with 59R1 plus taxol, control and taxol prior to harvesting for microarray analysis. Mean differential expression values for taxol vs. control and 59R1 plus taxol vs. taxol treated animals (3 animals per group) were calculated.

[6] = test system: murine Notch3; assay: DLL4-Fc induced receptor activation in transfected PC3 cells, murine Notch3; assay type: cell-based, mouse; settings: immobilized DLL4-Fc
Experimental: 59R5 was determined to have similar activity in blocking Notch2 and Notch3 signaling as 59R1. Receptor activation was determined in luciferase-based assays. PC3 tumor cells were transiently transfected with a human or mouse Notch receptor (human Notch2, murine Notch2, human Notch3, or murine Notch3) and […] inducible reporter construct. Transfected cells were incubated with different concentrations of 59R1 or 59R5 antibody in the presence of passively immobilized DLL4-Fc protein. Notch receptor activation was determined by measuring luciferase activity.

T1 sequence (Q04721 26-2471): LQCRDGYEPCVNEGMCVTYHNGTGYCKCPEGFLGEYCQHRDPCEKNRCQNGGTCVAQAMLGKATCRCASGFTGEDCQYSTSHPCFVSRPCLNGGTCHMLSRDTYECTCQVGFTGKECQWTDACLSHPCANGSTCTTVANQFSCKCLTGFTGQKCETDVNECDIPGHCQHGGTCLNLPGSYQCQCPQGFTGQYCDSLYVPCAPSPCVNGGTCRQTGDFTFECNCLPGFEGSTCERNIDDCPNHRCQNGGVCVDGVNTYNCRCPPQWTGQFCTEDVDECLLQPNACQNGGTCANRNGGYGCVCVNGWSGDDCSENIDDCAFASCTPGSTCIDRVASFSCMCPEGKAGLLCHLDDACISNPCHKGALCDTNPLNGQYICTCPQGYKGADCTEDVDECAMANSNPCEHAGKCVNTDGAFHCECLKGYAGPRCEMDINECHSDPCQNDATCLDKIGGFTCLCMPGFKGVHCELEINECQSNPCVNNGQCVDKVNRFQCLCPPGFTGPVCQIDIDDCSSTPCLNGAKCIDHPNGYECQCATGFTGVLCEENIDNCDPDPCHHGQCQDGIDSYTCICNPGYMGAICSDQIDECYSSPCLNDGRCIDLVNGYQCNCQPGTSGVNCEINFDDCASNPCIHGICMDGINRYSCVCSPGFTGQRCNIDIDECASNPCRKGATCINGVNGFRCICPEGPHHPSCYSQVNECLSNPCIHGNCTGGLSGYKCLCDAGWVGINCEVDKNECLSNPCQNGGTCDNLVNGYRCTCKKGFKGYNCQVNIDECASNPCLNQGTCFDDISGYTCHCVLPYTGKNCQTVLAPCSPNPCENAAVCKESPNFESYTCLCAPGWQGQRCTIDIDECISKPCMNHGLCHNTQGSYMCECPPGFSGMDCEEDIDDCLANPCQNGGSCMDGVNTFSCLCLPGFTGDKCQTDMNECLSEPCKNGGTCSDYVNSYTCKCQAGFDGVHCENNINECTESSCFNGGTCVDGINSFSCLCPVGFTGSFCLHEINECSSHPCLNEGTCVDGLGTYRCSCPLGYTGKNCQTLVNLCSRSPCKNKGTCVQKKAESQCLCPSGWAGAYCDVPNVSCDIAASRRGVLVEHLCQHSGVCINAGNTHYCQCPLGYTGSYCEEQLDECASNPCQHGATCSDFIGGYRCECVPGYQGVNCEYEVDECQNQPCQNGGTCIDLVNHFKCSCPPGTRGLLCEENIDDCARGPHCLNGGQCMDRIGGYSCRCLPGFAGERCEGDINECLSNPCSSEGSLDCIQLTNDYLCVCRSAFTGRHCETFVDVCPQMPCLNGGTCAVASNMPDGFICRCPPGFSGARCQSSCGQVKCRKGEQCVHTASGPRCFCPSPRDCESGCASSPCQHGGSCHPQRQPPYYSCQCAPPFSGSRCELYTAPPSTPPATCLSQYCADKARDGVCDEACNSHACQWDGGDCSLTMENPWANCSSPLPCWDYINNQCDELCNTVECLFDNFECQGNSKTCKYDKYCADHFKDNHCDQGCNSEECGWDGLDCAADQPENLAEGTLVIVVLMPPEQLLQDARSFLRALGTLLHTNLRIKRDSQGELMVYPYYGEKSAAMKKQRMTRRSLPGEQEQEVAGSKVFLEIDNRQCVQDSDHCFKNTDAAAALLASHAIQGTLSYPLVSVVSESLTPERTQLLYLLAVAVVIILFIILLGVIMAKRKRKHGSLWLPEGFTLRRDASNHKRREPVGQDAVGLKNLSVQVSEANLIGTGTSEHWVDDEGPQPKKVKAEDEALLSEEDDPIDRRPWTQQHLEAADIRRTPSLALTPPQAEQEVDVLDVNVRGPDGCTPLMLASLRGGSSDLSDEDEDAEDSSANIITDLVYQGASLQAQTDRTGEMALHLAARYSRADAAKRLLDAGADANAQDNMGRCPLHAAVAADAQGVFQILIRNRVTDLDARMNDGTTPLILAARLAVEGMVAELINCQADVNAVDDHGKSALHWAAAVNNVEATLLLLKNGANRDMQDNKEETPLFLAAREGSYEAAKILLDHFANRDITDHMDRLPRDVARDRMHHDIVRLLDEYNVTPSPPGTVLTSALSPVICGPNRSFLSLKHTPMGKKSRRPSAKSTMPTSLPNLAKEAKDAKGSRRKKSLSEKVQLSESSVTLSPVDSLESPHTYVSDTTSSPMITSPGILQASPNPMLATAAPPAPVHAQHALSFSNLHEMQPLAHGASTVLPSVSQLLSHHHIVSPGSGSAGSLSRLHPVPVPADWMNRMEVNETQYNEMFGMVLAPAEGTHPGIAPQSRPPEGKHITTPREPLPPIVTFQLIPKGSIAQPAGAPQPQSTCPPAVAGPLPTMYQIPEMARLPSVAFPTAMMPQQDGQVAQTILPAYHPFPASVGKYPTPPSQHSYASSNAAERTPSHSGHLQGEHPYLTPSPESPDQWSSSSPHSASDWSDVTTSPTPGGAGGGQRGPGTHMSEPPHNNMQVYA

Which “blocking of hDLL4 binding to human Notch2 (FACS)” value [1] does the source give for “59R1: human IgG2 antibody binding Notch2 and Notch3; heavy and light chain SEQ ID NO:16 and 18; ATCC PTA-9547” here?
The value was “confirmed”.

What about the “hJAG2-induced Notch2 reporter activity” value [2] of the same substance?
Its value is “inhibit”.

And the “B51 tumor recurrence after paclitaxel treatment” value [3]?
The value was “recur more rapidly in the control group compared with the group treated with 59R1”.

And the “Fold Foxc2” value [4]?
Its value is −5.10.

And the “Fold Gzma” value [4]?
Its value is 7.42.

And the “Fold Hey2” value [4]?
Its value is −4.40.

And the “Fold Heyl” value [4]?
Its value is −3.33.

And the “Fold Mmp9” value [4]?
The value was −1.92.

And the “Fold Notch3” value [4]?
Its value is −2.10.

And the “Fold Pdcd1lg2” value [4]?
The value was 2.36.

And the “Fold Rgs4” value [4]?
Its value is −2.71.

What about the “Fold Rgs5” value [4] of the same substance?
The value was −4.32.

What about the “Fold BMPR1B” value [5] of the same substance?
The value was −4.3.

What about the “Fold BNIP3” value [5] of the same substance?
The value was 1.8.

And the “Fold EGLN3” value [5]?
The value was 11.9.

And the “Fold HSPB6” value [5]?
Its value is −1.8.

What about the “Fold ITGAM” value [5] of the same substance?
The value was −2.5.

And the “Fold LHX8” value [5]?
The value was −4.4.

What about the “Fold NDRG1” value [5] of the same substance?
Its value is 6.4.

And the “Fold RARRES1” value [5]?
The value was −2.2.

What about the “Fold RARRES3” value [5] of the same substance?
Its value is −1.7.

What about the “Fold RBP2” value [5] of the same substance?
The value was −2.2.

What about the “Fold XAF1” value [5] of the same substance?
Its value is −1.5.

For “59R5: human antibody that specifically binds human Notch 2 and human Notch 3; heavy and light chain SEQ ID NO:49 and 18; ATCC PTA-10170”, which “ligand-induced activation of murine Notch3 receptor signaling” value [6] is on record?
The value was “blocked”.

What about the “Notch pathway as measured by gene expression (Foxc2, Hey2, Heyl, Notch3)” value ([4]; microarray, p<0.01) of the same substance?
The value was “significantly inhibited the Notch pathway”.

And the “Fold Foxc2” value [4]?
Its value is −3.00.

And the “Fold Gzma” value [4]?
Its value is 2.80.

And the “Fold Hey2” value [4]?
The value was −2.46.

And the “Fold Heyl” value [4]?
The value was −2.79.

And the “Fold Mmp9” value [4]?
Its value is −2.35.

What about the “Fold Notch3” value [4] of the same substance?
The value was −1.86.

And the “Fold Pdcd1lg2” value [4]?
Its value is 4.97.

What about the “Fold Rgs4” value [4] of the same substance?
The value was −2.90.

What about the “Fold Rgs5” value [4] of the same substance?
The value was −2.14.
